The values that follow come from paper PMC5316403, “A multicenter assessment of single-cell models aligned to standard measures of cell health for prediction of acute hepatotoxicity” (Archives of Toxicology, 2016).

The subject of one series is man. The following applies: cited from earlier work.
On the set-up of series [1]: method as in references provided in Table 4. The following applies: therapeutic concentrations, used to calculate EC50/Cmax; ref references provided in Table 4; cited from earlier work.
The next series has as its system HepG2/ECACC cells. Nature of the series: Cytotoxicity (intracellular ATP, CellTiter Glo) in HepG2/ECACC cells. The class given is cell-based, human. The following applies: 24 or 72 h, all test sites, up to highest dose. A general note: Cellular ATP, detected with luciferase, serves as a proxy for viable cell number.
Series [2] concerns cryopreserved HepaRG cells. Nature of the series: Cytotoxicity (intracellular ATP, CellTiter Glo) in cryopreserved HepaRG cells. The class given is cell-based, human. The following applies: 24 or 72 h, all test sites, up to highest dose.
Protocol: Differentiated cryopreserved HepaRG cells were purchased from Biopredic International (Saint-Gregoire, France). The cells were thawed in Thawing/Plating Medium [Williams’ Medium E supplemented with 1 % penicillin/streptomycin, 1 % L-Glutamine, 10 % FCS and 12.5 % ADD670 cocktail (BioPredic International, Saint-Gregoire, France; proprietary medium composition)], centrifuged (500×g; 5 min; room temperature) and then resuspended in fresh Thawing/Plating Medium. After the addition of the ADD670 cocktail, the final DMSO concentration in the Thawing/Plating Medium was 0.5 %. Cell number and viability were determined by the trypan blue exclusion method, and the cells were plated at a seeding density of 72,000 cells/well in white/clear bottom 96-well plates (Beckton Dickinson, New Jersey, USA). […]
(§1) The CellTiter Glo assay kit (Promega, Madison, WI, USA) was used to determine the ATP content in the cells after exposure to the thirteen compounds for 24 or 72 h. […] The supernatant samples were transferred into opaque flat-bottomed 96-well plates (Greiner-Bio-One, Frickenhausen, Germany) and the luminescence measured.
Cell viability was determined as the percentage of the fluorescent resorufin after incubation with resazurin in the treated cells compared with vehicle control or the percentage of ATP detected in the treated cells compared with vehicle control. […]
A further series deals with Upcyte hepatocytes. Nature of the series: Cytotoxicity (intracellular ATP, CellTiter Glo) in Upcyte hepatocytes. The following applies: Upcyte cells, 24 or 72 h, all test sites, up to highest dose. The class given is cell-based, human.
Series [3] relates to primary human hepatocytes (PHH). Nature of the series: Cytotoxicity (intracellular ATP, CellTiter Glo) in primary human hepatocytes. Conditions: cryopreserved PHH, 24 or 72 h, all test sites, up to highest dose. The class given is cell-based.
Protocol: Cryopreserved PHH from five donors were provided by KaLy-Cell (Plobsheim, France). […] Cell number and viability were determined by the trypan blue exclusion method, and the cells were plated at a seeding density of 70,000 cells/well of a KaLy-Cell home-coated type I rat tail collagen (10 µg/well) 96-well plate. […]
as §1
(§2) Cell viability was determined as the percentage of the fluorescent resorufin after incubation with resazurin in the treated cells compared with vehicle control or the percentage of ATP detected in the treated cells compared with vehicle control. Individual EC50 values from all participants were calculated using GraphPad Prism 6 (version 6.03) at one partner site. […]
The mark [4] stands for this setting: reported to cause hepatotoxicity in man or not, ref references in Table 4.

Like-named read-outs stand apart in the source and are kept apart here.

Protocol for HepG2/ECACC cells: A specific clone of HepG2 cells was purchased from the European Collection of Cell Cultures (ECACC). The cells were cultivated and low passage frozen stocks were generated and banked by one MIP-DILI partner designated as the cell bank. The cells were distributed to the relevant MIP-DILI partners. […] Cell number and viability were determined using the trypan blue exclusion method, and the cells were plated at a seeding density of 20,000 cells/well in BD Biocoat Collagen I 96-well plates (Beckton Dickinson, New Jersey, USA). […]
as §1, §2
Protocol for Upcyte hepatocytes: The cells were then centrifuged (90×g; 5 min; room temperature) and resuspended in fresh Upcyte High Performance Medium (Medicyte, Heidelberg, Germany). Cell number and viability were determined via the trypan blue exclusion method, and the cells were seeded at 18,750 cells/well in white/clear bottom 96-well plates (Beckton Dickinson, New Jersey, USA). After seeding, the cells were incubated for 72 h (37 °C; 5 % CO2; 95 % air) without additional medium change prior to compound treatment.
The compound concentrations used were chosen as representative for each compound when conducting an in vitro safety assessment study. […] Stock aliquots were stored at −20 °C and only thawed once. […]
as §1, §2

Take `COc1ccccc1Oc1c(NS(=O)(=O)c2ccc(C(C)(C)C)cc2)nc(-c2ncccn2)nc1OCCO` [Bosentan]: the Hepatotoxic/non-hepatotoxic result in the series with man (setting [4]) is on record as “Hepatotoxic”. Regarding `O=C1CC2(CCCC2)CC(=O)N1CCCCN1CCN(c2ncccn2)CC1` [Buspirone], in the series with man (setting [4]), the Hepatotoxic/non-hepatotoxic entry is “Non-hepatotoxic”. Consider `O=C(O)Cc1ccccc1Nc1c(Cl)cccc1Cl` [Diclofenac], for which the Hepatotoxic/non-hepatotoxic result in the series with man (in vivo) is “Hepatotoxic”. Regarding `CCN(CC)C(=O)/C(C#N)=C/c1cc(O)c(O)c([N+](=O)[O-])c1` [Entacapone], the Hepatotoxic/non-hepatotoxic entry in the series on man (setting [4]) was “Non-hepatotoxic”. Moreover, the Cmax (usually the peak of the concentration-time curve) in series [1] was 1500 nM.

In the case of `CN(C)C(=N)N=C(N)N` [Metformin], in series [1], the Cmax is 7740 nM. As to `CCc1nn(CCCN2CCN(c3cccc(Cl)c3)CC2)c(=O)n1CCOc1ccccc1` [Nefazodone], the Hepatotoxic/non-hepatotoxic result in the series on man (setting [4]) was “Hepatotoxic”. Also, the Cmax in series [1] was 859 nM. Turning to `CC(=O)Nc1ccc(O)cc1` [Paracetamol], the Hepatotoxic/non-hepatotoxic entry in the series with man (setting [4]) is given as “Hepatotoxic”. In the case of `C1CCC(C(CC2CCCCN2)C2CCCCC2)CC1` (stereo not drawn) [Perhexiline], the Hepatotoxic/non-hepatotoxic entry in the series on man (setting [4]) is given as “Hepatotoxic”. Moreover, the Cmax in series [1] was 1520 nM. Regarding `CCc1ccc(CCOc2ccc(CC3SC(=O)NC3=O)cc2)nc1` (stereo not drawn) [Pioglitazone], in the series on man (setting [4]), the Hepatotoxic/non-hepatotoxic entry is listed as “Non-hepatotoxic”. The Cmax in series [1] was 2670 nM. For the compound `Cc1ccc(C(=O)c2cc(O)c(O)c([N+](=O)[O-])c2)cc1` [Tolcapone], the Hepatotoxic/non-hepatotoxic entry in the series with man (setting [4]) is on record as “Hepatotoxic”. Moreover, the Cmax in series [1] is 27800 nM.

Regarding `Cc1c(C)c2c(c(C)c1O)CCC(C)(COc1ccc(CC3SC(=O)NC3=O)cc1)O2` (stereo not drawn) [Troglitazone], the Hepatotoxic/non-hepatotoxic result with man (setting [4]) is given as “Hepatotoxic”. Moreover, in series [1], the maximum concentration (Cmax) was 6390 nM. Regarding `CCOC(=O)CN[C@@H](C(=O)N1CC[C@H]1C(=O)NCc1ccc(/C(N)=N\O)cc1)C1CCCCC1` [Ximelagatran], the “toxicity (cell viability)” value (in the series on HepG2/ECACC cells; in series [2]; with Upcyte hepatocytes; in series [3]) was “no toxicity was detected even at the highest doses” in each case.
